Reference: patent US20210283107A1, “Methods to Expand the Spectrum of Gram-Positive Antibiotics” (NORTH CAROLINA STATE UNIVERSITY, priority 2016, published 2021)
Values after ≈ are worked out from the molar mass of the structure shown.

Experiments:
[1] = tested on: A. baumannii mutant AB1310; assay: MIC against Tn-seq transposon mutant AB1310; assay type: cell-based; conditions: Acinetobacter baumannii
Experimental: During individual MIC screening, two mutants, AB522 and AB1310, were identified due to their increased sensitivity to the three macrolide antibiotics and vancomycin when compared to AB 5075 (Table 17).
Day Cultures (6 h) were subcultured to 5×10^5 CFU/mL in cation adjusted Mueller-Hinton broth (CAMHB). Aliquots (1 mL) were placed in culture tubes, and compound was added from 100 mM stock solutions, such that the compound concentration equaled the highest concentration tested (200 μM or 64 μg/mL). Samples were then aliquoted (200 μL) into the first row of wells of a 96-well plate, with all remaining wells being filled with 100 μL of initial bacterial subculture. The wells in row one were mixed five times before 100 μL was transferred to the following row (row two). Row two was then mixed five times, and 100 μL was transferred to row three. This processed was repeated until the final row had been mixed. This process provided a serial dilution of the compound. Plates were covered with Glad Press n'Seal and were incubated under stationary conditions at 37° C. for 16 hours. MIC values were recorded as the lowest concentration at which no bacterial growth was observed.

A. baumannii strain 8967 = assay: Potentiation of clarithromycin and vancomycin against clinical isolate; assay type: cell-based, Acinetobacter baumannii; conditions: with compound at 30 μM
Experimental: (§1) As previously stated, A. baumannii 5075 was chosen for these studies due to its virulence and multidrug resistance, but to further analyze the activity of our lead compounds, 23 A. baumannii clinical isolates obtained from Walter Reed Army Institute of Research (WRAIR) were tested.
(§2) Day Cultures (6 h) were subcultured to 5×10^5 CFU/mL in cation adjusted Mueller-Hinton broth (CAMHB). […] One milliliter of the resulting solution was aliquoted into a separate culture tube and was dosed with antibiotic so that the resulting concentration was the highest desirable concentration to be tested. Bacteria treated with antibiotic alone were used as a control. Row one of a 96-well plate was filled with 200 μL of the antibiotic/compound solution, and the remaining rows were filled with 100 μL of the remaining 4 mL bacterial subculture. The wells in row one were mixed five times before 100 μL was transferred to the following row (row two). Row two was then mixed five times, and 100 μL was transferred to row three. This process was repeated until the second to last row had been reached. The last row is left unexposed to antibiotic in order to serve as a negative control. The antibiotic only treated bacteria was plated by aliquoting 200 μL of the treated bacteria into row one and filling the remaining rows with untreated bacteria from the original bacteria subculture. The rows were mixed in the same way as described above. Plates were covered with Glad Press n'Seal and were incubated under stationary conditions at 37° C. for 16 hours. MIC values were recorded as the lowest concentration at which no bacterial growth was observed. Fold reductions were determined by comparison of the compound treated wells with the antibiotic only treated control wells.

A. baumannii strain 4957 = assay: as above; assay type: cell-based, Acinetobacter baumannii; conditions: with compound at 30 μM
Experimental: as §1, §2

A. baumannii strain 4456 = assay: as above; assay type: cell-based, Acinetobacter baumannii; conditions: with compound at 30 μM
Experimental: as §1, §2

A. baumannii strain 4498 = assay: as above; assay type: cell-based, Acinetobacter baumannii; conditions: with compound at 30 μM
Experimental: as §1, §2

A. baumannii strain 4795 = assay: as above; assay type: cell-based, Acinetobacter baumannii; conditions: with compound at 30 μM
Experimental: as §1, §2

A. baumannii strain 4025 = assay: as above; assay type: cell-based, Acinetobacter baumannii; conditions: with compound at 30 μM
Experimental: as §1, §2

A. baumannii strain 4857 = assay: as above; assay type: cell-based, Acinetobacter baumannii; conditions: with compound at 30 μM
Experimental: as §1, §2

A. baumannii strain 5256 = assay: as above; assay type: cell-based, Acinetobacter baumannii; conditions: with compound at 30 μM
Experimental: as §1, §2

A. baumannii strain 3560 = assay: as above; assay type: cell-based, Acinetobacter baumannii; conditions: with compound at 30 μM
Experimental: as §1, §2

A. baumannii strain 5197 = assay: as above; assay type: cell-based, Acinetobacter baumannii; conditions: with compound at 30 μM
Experimental: as §1, §2

A. baumannii strain 3785 = assay: as above; assay type: cell-based, Acinetobacter baumannii; conditions: with compound at 30 μM
Experimental: as §1, §2

A. baumannii strain 4991 = assay: as above; assay type: cell-based, Acinetobacter baumannii; conditions: with compound at 30 μM
Experimental: as §1, §2

A. baumannii strain 5711 = assay: as above; assay type: cell-based, Acinetobacter baumannii; conditions: with compound at 30 μM
Experimental: as §1, §2

A. baumannii strain 4027 = assay: as above; assay type: cell-based, Acinetobacter baumannii; conditions: with compound at 30 μM
Experimental: as §1, §2

A. baumannii strain 4878 = assay: as above; assay type: cell-based, Acinetobacter baumannii; conditions: with compound at 30 μM
Experimental: as §1, §2

A. baumannii strain 3806 = assay: as above; assay type: cell-based, Acinetobacter baumannii; conditions: with compound at 30 μM
Experimental: as §1, §2

A. baumannii strain 4026 = assay: as above; assay type: cell-based, Acinetobacter baumannii; conditions: with compound at 30 μM
Experimental: as §1, §2

A. baumannii strain 4448 = assay: as above; assay type: cell-based, Acinetobacter baumannii; conditions: with compound at 30 μM
Experimental: as §1, §2

A. baumannii strain 4269 = assay: as above; assay type: cell-based, Acinetobacter baumannii; conditions: with compound at 30 μM
Experimental: as §1, §2

A. baumannii strain 4490 = assay: as above; assay type: cell-based, Acinetobacter baumannii; conditions: with compound at 30 μM
Experimental: as §1, §2

A. baumannii strain 3927 = assay: as above; assay type: cell-based, Acinetobacter baumannii; conditions: with compound at 30 μM
Experimental: as §1, §2

A. baumannii strain 4052 = assay: as above; assay type: cell-based, Acinetobacter baumannii; conditions: with compound at 30 μM
Experimental: as §1, §2

A. baumannii strain 5001 = assay: as above; assay type: cell-based, Acinetobacter baumannii; conditions: with compound at 30 μM
Experimental: as §1, §2

## Nc1nc(-c2ccc(NC(=O)c3cc(Cl)cc(Cl)c3)cc2)c[nH]1 [Compound 1]
[1]
  MIC: 12.5 µM (≈ 4.34 µg/mL)
A. baumannii strain 8967
  Clarithromycin MIC: 0.25 µg/mL
  Vancomycin MIC: 4 µg/mL
A. baumannii strain 4957
  Clarithromycin MIC: 0.5 µg/mL
  Vancomycin MIC: 8 µg/mL
A. baumannii strain 4456
  Clarithromycin MIC: 0.5 µg/mL
  Vancomycin MIC: 16 µg/mL
A. baumannii strain 4498
  Clarithromycin MIC: ≤0.25 µg/mL
  Vancomycin MIC: 1 µg/mL
A. baumannii strain 4795
  Clarithromycin MIC: 0.5 µg/mL
  Vancomycin MIC: 4 µg/mL
A. baumannii strain 4025
  Clarithromycin MIC: 0.25 µg/mL
  Vancomycin MIC: 2 µg/mL
A. baumannii strain 4857
  Clarithromycin MIC: 0.5 µg/mL
  Vancomycin MIC (μg/mL): Toxic
A. baumannii strain 5256
  Clarithromycin MIC: 0.25 µg/mL
  Vancomycin MIC: 2 µg/mL
A. baumannii strain 3560
  Clarithromycin MIC: 0.5 µg/mL
  Vancomycin MIC: 0.5 µg/mL
A. baumannii strain 5197
  Clarithromycin MIC: 0.5 µg/mL
  Vancomycin MIC: 16 µg/mL
A. baumannii strain 3785
  Clarithromycin MIC: 0.5 µg/mL
  Vancomycin MIC: 1 µg/mL
A. baumannii strain 4991
  Clarithromycin MIC: 0.5 µg/mL
  Vancomycin MIC: 32 µg/mL
A. baumannii strain 5711
  Clarithromycin MIC: 0.5 µg/mL
  Vancomycin MIC: 8 µg/mL
A. baumannii strain 4027
  Clarithromycin MIC: ≤0.25 µg/mL
  Vancomycin MIC: 1 µg/mL
A. baumannii strain 4878
  Clarithromycin MIC: 0.5 µg/mL
  Vancomycin MIC: 2 µg/mL
A. baumannii strain 3806
  Clarithromycin MIC: 0.25 µg/mL
  Vancomycin MIC: 2 µg/mL
A. baumannii strain 4026
  Clarithromycin MIC: 0.5 µg/mL
  Vancomycin MIC: 2 µg/mL
A. baumannii strain 4448
  Clarithromycin MIC: ≤0.25 µg/mL
  Vancomycin MIC: 1 µg/mL
A. baumannii strain 4269
  Clarithromycin MIC: ≤0.25 µg/mL
  Vancomycin MIC: 2 µg/mL
A. baumannii strain 4490
  Clarithromycin MIC: 0.5 µg/mL
  Vancomycin MIC: 1 µg/mL
A. baumannii strain 3927
  Clarithromycin MIC: 0.5 µg/mL
  Vancomycin MIC: 8 µg/mL
A. baumannii strain 4052
  Clarithromycin MIC: ≤0.25 µg/mL
  Vancomycin MIC: 4 µg/mL
A. baumannii strain 5001
  Clarithromycin MIC: 0.5 µg/mL
  Vancomycin MIC: 2 µg/mL

## Nc1nc(-c2ccc(NC(=O)c3cc(Br)cc(Br)c3)cc2)c[nH]1 [Compound 4]
[1]
  MIC: 12.5 µM (≈ 5.45 µg/mL)
A. baumannii strain 8967
  Clarithromycin MIC: 0.25 µg/mL
  Vancomycin MIC: 8 µg/mL
A. baumannii strain 4957
  Clarithromycin MIC: 0.5 µg/mL
  Vancomycin MIC: 8 µg/mL
A. baumannii strain 4456
  Clarithromycin MIC: ≤0.25 µg/mL
  Vancomycin MIC: 64 µg/mL
A. baumannii strain 4498
  Clarithromycin MIC: ≤0.25 µg/mL
  Vancomycin MIC: 16 µg/mL
A. baumannii strain 4795
  Clarithromycin MIC: 0.5 µg/mL
  Vancomycin MIC: 4 µg/mL
A. baumannii strain 4025
  Clarithromycin MIC: 0.25 µg/mL
  Vancomycin MIC: 16 µg/mL
A. baumannii strain 4857
  Clarithromycin MIC: 0.5 µg/mL
  Vancomycin MIC (μg/mL): Toxic
A. baumannii strain 5256
  Clarithromycin MIC: 0.25 µg/mL
  Vancomycin MIC: 8 µg/mL
A. baumannii strain 3560
  Clarithromycin MIC: 0.5 µg/mL
  Vancomycin MIC: 32 µg/mL
A. baumannii strain 5197
  Clarithromycin MIC: 0.5 µg/mL
  Vancomycin MIC: 8 µg/mL
A. baumannii strain 3785
  Clarithromycin MIC: 0.5 µg/mL
  Vancomycin MIC: 128 µg/mL
A. baumannii strain 4991
  Clarithromycin MIC: 0.5 µg/mL
  Vancomycin MIC: 32 µg/mL
A. baumannii strain 5711
  Clarithromycin MIC: 0.5 µg/mL
  Vancomycin MIC: 64 µg/mL
A. baumannii strain 4027
  Clarithromycin MIC: 0.25 µg/mL
  Vancomycin MIC: 32 µg/mL
A. baumannii strain 4878
  Clarithromycin MIC: 1 µg/mL
  Vancomycin MIC: 1 µg/mL
A. baumannii strain 3806
  Clarithromycin MIC: ≤0.125 µg/mL
  Vancomycin MIC: 32 µg/mL
A. baumannii strain 4026
  Clarithromycin MIC: 1 µg/mL
  Vancomycin MIC: 16 µg/mL
A. baumannii strain 4448
  Clarithromycin MIC: ≤0.25 µg/mL
  Vancomycin MIC: 4 µg/mL
A. baumannii strain 4269
  Clarithromycin MIC: ≤0.25 µg/mL
  Vancomycin MIC: 64 µg/mL
A. baumannii strain 4490
  Clarithromycin MIC: ≤0.25 µg/mL
  Vancomycin MIC: 8 µg/mL
A. baumannii strain 3927
  Clarithromycin MIC: 0.5 µg/mL
  Vancomycin MIC: 64 µg/mL
A. baumannii strain 4052
  Clarithromycin MIC: ≤0.25 µg/mL
  Vancomycin MIC: 64 µg/mL
A. baumannii strain 5001
  Clarithromycin MIC: 0.5 µg/mL
  Vancomycin MIC: 1 µg/mL
